Test results published in patent publication US20240309014A1, “MACROCYCLIC COMPOUNDS AND USES THEREOF” (President and Fellows of Harvard College, priority 2017, published 2024).

How the values were obtained:
[1] = system: human breast cancer cell line HCC1954; test: HCC1954 growth inhibition assay (Test Example 3); type: cell-based; settings: 3 days incubation, CellTiter-Glo
Procedure: In this assay, the growth inhibitory activity of test compounds in a human breast cancer cell line HCCl954 was measured. HCC1954 cells were maintained in an RPMI-1640 medium modified to contain 2 mM L-glutamine, 10 mM HEPES, 1 mM sodium pyruvate, 4500 mg/L glucose, and 1500 mg/L sodium bicarbonate (ATCC 30-2001) containing 10% fetal bovine serum (FBS: Nichirei, 12D168), and penicillin and streptomycin in a 5% CO2 incubator (37° C.). To each well of a 96 well plate (Becton, Dickinson and Company, 353219), 75 μL of HCC1954 cell suspension adjusted to a concentration of 4×10^4 cells/mL with the culture medium was added, and the cells were incubated overnight in a 5% CO2 incubator (37° C.). On the next day, 25 μL of Compound (1) or Halichondrin B in three-fold dilution series suspended in the culture medium was added to each well, and the resultant was incubated for 3 days in a 5% CO2 incubator (37° C.). Then, cell viability was determined by CellTiter-Glo® Luminescent Cell Viability Assay (Promega) with EnVision 2103 Multilabel Reader (Perkin-Elmer, Wellesley, MA). Value of the wells containing cells without adding the test compounds was defined as 100% and the value of the wells containing no cells was defined as 0%. The concentration of the test compound necessary for inhibiting the cell growth by 50% (i.e., an IC50 value) was calculated, and shown in Table 3.

[2] = system: FaDu subcutaneous xenograft; test: FaDu subcutaneous xenograft model in combination with cetuximab; type: in vivo, nude mice
From the text: A human squamous cell carcinoma of the head and neck (SCCHN) cell line FaDu, which had been cultured in an RPMI-1640 medium containing 10% FBS, and penicillin and streptomycin, was adjusted to a concentration of 5×10^7 cells/mL with Hanks' Balanced Salt Solution to prepare a cell suspension. The cell suspension was inoculated in a volume of […] into a subcutaneous part of a right flank of nude mice, 7 weeks of ages (CAnN.Cg-Foxnlnu/CrlCrlj, female, Charles River Laboratories Japan Inc.). Ten days after cell inoculation, the shortest diameter and the longest diameter of a tumor in each mouse were measured by using an electronic digital caliper (Digimatic™ caliper, Mitutoyo Corporation), so as to calculate the volume of the tumor in accordance with the following calculation formulae: […]
On the basis of the volumes of tumors obtained on the first day of administration, the mice were grouped such that averages of the tumor volumes were substantially equal among the groups. Each test compound was dissolved in DMSO and a solution was stored at the freezer before use. Immediately before the administration, the stock solution was diluted in saline with 100 μM of hydroxypropyl-β-cyclodextrin. […] Incidentally, the experiment was conducted on groups each consisting of 4 mice.

[3] = system: α-SMA positive-CAFs in FaDu tumor; test: Effect on α-SMA positive-CAFs in the FaDu subcutaneous model (Test Example 10); type: in vivo, nude mice; settings: two days after administration
Procedure: A human squamous cell carcinoma of the head and neck (SCCHN) cell line FaDu, which had been cultured in an RPMI-1640 medium containing 10% FBS, and penicillin and streptomycin, was adjusted to a concentration of 5×10^7 cells/mL with PBS to prepare a cell suspension. The cell suspension was inoculated in a volume of 100 μL into a subcutaneous part of a right flank of nude mice, 5 to 6 weeks of ages (CAnN.Cg-Foxnlnu/CrlCrlj, female, Charles River Laboratories Japan, Inc.). Ten days after cell inoculation, a test compound in saline with 100 μM of hydroxypropyl-β-cyclodextrin was intravenously administered at ½ MTD and MTD. The experiment was conducted on groups each consisting of 3 mice. Two days after administration, tumor samples were collected and fixed with IHC Zinc Fixative (BD Pharmingen) at 4° C. for 24 hr. Paraffin-embedded tissues were sectioned ([…]), mounted on positively charged slides, and air-dried for 6 hr. Immunohistochemical staining of α-SMA was conducted using Ventana autostainer model Discover XT (Roche Diagnostics). Sections were deparaffinized, conditioned and the antigens were retrieved with proprietary buffers, EZPrep and CC1 (Ventana Medical Systems). Mouse anti-α-SMA monoclonal antibody conjugated with alkaline phosphatase (clone 1A4, Sigma) was applied at 5 μg/mL. Sections were incubated with the antibody for 6 hr. The detection was performed with RedMap kit (Ventana Medical Systems, Inc). Sections were dehydrated in graded ethanols, defatted in xylene replacement and covered with DPX (Merck KGaA). The serial tumor slices were deparaffinized and stained with Mayer's hematoxylin (Muto Pure Chemicals) for 1 min. Sections were dehydrated in graded ethanols, defatted in xylene replacement and covered with DPX (Merck KGaA).
Immunostained slides were scanned using Vectra 2 Automated Slide Imaging System (Perkin Elmer Inc.). The area of the α-SMA-positive region in the whole tumor was quantified by counting the α-SMA-positive objects using inForm 2 software (PerkinElmer Inc.). Area of the tumor region was measured by assessing the hematoxylin-staining area using inForm 2 software (PerkinElmer Inc.). The area of the α-SMA positive region was normalized by the area of the tumor region. A suppression rate of the α-SMA positive area of the test compound-dosing group was calculated with the below formula, and shown in Table 10.

[4] = system: HSC-2-Luc inoculated into tongue; test: HSC-2 orthotopic transplantation mouse model; type: in vivo, nude mice; settings: for ILS (%): Compound (1) 0.09 mg/kg
[5] = system: COLO-704 subcutaneous xenograft; test: COLO-704 xenograft model as monotherapy (FIG. 12); type: in vivo, nude mice
Procedure: A human ovarian cancer cell line COLO-704, which had been cultured in a RPMI-1640 containing 10% FBS, and penicillin-streptomycin, was adjusted to a concentration of 1×10^8 cells/mL with Hanks' Balanced Salt Solution to prepare a cell suspension. The cell suspension was inoculated in a volume of 100 μL into a subcutaneous part of a right flank of nude mice, 5 weeks of ages (CAnN.Cg- Foxnlnu/CrlCrlj, female, Charles River Laboratories Japan Inc.). Nine days after cell inoculation (Day 1), the shortest diameter and the longest diameter of a tumor in each mouse were measured by using an electronic digital caliper (Digimatic™ caliper, Mitutoyo Corporation), so as to calculate the volume of the tumor in accordance with the following calculation formulae: […]
On the basis of the volumes of tumors obtained on Day 1, the mice were grouped such that averages of the tumor volumes were substantially equal among the groups. The experiment was conducted on groups each consisting of six mice. The test compound was dissolved in DMSO and a solution was stored in the freezer before use. Immediately before the administration, the stock solution was diluted with saline. The test compound in saline was intravenously once-weekly administered at 20 μg/kg, 60 μg/kg, or 180 μg/kg for 2 weeks (on Day 1 and Day 8).

[6] = ¼ MTD i.v. (Halichondrin B 0.0125 mg/kg, Compound (1) 0.05 mg/kg) + cetuximab 20 mg/kg
[7] = ½ MTD i.v. (Halichondrin B 0.025 mg/kg, Compound (1) 0.1 mg/kg) + cetuximab 20 mg/kg
[8] = MTD i.v. (Halichondrin B 0.05 mg/kg, Compound (1) 0.20 mg/kg)
[9] = ½ MTD i.v. (Halichondrin B 0.025 mg/kg, Compound (1) 0.10 mg/kg)

| Compound | IC50 ([1]; Homo sapiens, HCC1954, 72 h) | Tumor Regression on day 35 (%) [2, 6] | Tumor Regression on day 35 (%) [2, 7] | Suppression rate of α-SMA positive area (%) [3, 8] | Suppression rate of α-SMA positive area (%) [3, 9] | bioluminescence signal ([4]; Compound (1) with cetuximab, after Day 14) | survived mice on Day 100 ([4]; Compound (1)+CTX combination group, n=16) | ILS (%) ([4]; single agent, Q7Dx3: cetuximab 5 mg/kg, cisplatin 5 mg/kg) | ILS (%) ([4]; with cetuximab 5 mg/kg, Q7Dx3: cisplatin 5 mg/kg) | antitumor effect ([5]; 60 μg/kg i.v. Day 1 and Day 8) | antitumor effect ([5]; 180 μg/kg i.v. Day 1 and Day 8) | xenograft tumors on Day 22 ([5]; 180 μg/kg i.v. Day 1 and Day 8) | IC50 [1] |
| --- | --- | --- | --- | --- | --- | --- | --- | --- | --- | --- | --- | --- | --- |
| C=C1C[C@@H]2CC[C@@]34C[C@H]5O[C@H]6[C@@H](O3)[C@H]3O[C@H](CC[C@@H]3O[C@H]6C5O4)CC(=O)O[C@@H]3[C@@H](C)[C@@H]4O[C@@H]5C[C@]6(C[C@@H]7O[C@]8(C[C@H](C)[C@@H]9O[C@H](CN)[C@H](O)C[C@@H]9O8)C[C@H](C)[C@@H]7O6)O[C@@H]5C[C@@H]4O[C@H]3C[C@H]3O[C@@H](CC[C@@H]1O2)C[C@@H](C)C3=C (stereo in doubt) [Compound (1)] | 0.0668 nM | 38% | 60% | 28% | 21% | clearly reduced the bioluminescence signal in all mice | 10 | 238% | >1150% | tumor growth delay | tumor regression | completely eradicated the xenograft tumors in all mice |  |
| C=C1C[C@@H]2CC[C@@]34C[C@H]5O[C@H]6[C@@H](O3)[C@H]3O[C@H](CC[C@@H]3O[C@H]6[C@H]5O4)CC(=O)O[C@@H]3[C@@H](C)[C@@H]4O[C@@H]5C[C@]6(C[C@@H]7O[C@]8(C[C@H](C)[C@@H]9O[C@H]([C@@H](O)C[C@@H](O)CO)C[C@@H]9O8)C[C@H](C)[C@@H]7O6)O[C@@H]5C[C@@H]4O[C@H]3C[C@H]3O[C@@H](CC[C@@H]1O2)C[C@@H](C)C3=C [Halichondrin B, reference compound] |  | −38% | −2% | 3% | 7% |  |  |  |  |  |  |  | 0.154 nM |
